Experimental findings from patent US6680313B2, “Carbapenum derivatives” (Meiji Seika Kaisha, Ltd., priority 2000, dated 2004) are described below.

In one data set the test system is H. influenzae PRC 2. Briefly: Antimicrobial activities (MIC, agar dilution). Conditions: Haemophilus influenzae, PRC2, Sensitivity Disk agar-N+5% Horse blood, 10^6 CFU/ml, read-out: minimum inhibiting concentrations (MIC). It counts as cell-based. As for the experimental part: (§1) The minimum inhibiting concentrations (MIC, μg/ml) of representative compounds, among the novel carbapenem derivatives of the present invention, to various pathogenic bacteria were measured in accordance with the method described in CHEMOTHERAPY, vol. 16, No. 1, 99, 1968. The culture medium for the measurement is Sensitivity Disk agar-N+5% Horse blood, and the amount of inoculants used is 10^6 CFU/ml.
In general terms: In agar dilution the substance is mixed into plates at graded concentrations.

The test system of another data set is S. aureus 209P JC-1. The experiment in a line: Antimicrobial activities (MIC, agar dilution). It counts as cell-based. Conditions: Staphylococcus aureus, Sensitivity Disk agar-N+5% Horse blood, 10^6 CFU/ml, read-out: minimum inhibiting concentrations (MIC). On the procedure: as §1
The subject of the next data set is K. pneumoniae PC 1602. Briefly: Antimicrobial activities (MIC, agar dilution). As to conditions: Klebsiella pneumoniae, PC1602, Sensitivity Disk agar-N+5% Horse blood, 10^6 CFU/ml, read-out: minimum inhibiting concentrations (MIC). It counts as cell-based. As for the experimental part: as §1
In the next data set the test system is C. freundii GN 346. The experiment in a line: Antimicrobial activities (MIC, agar dilution). It counts as cell-based. As to conditions: Citrobacter freundii, GN346, Sensitivity Disk agar-N+5% Horse blood, 10^6 CFU/ml, read-out: minimum inhibiting concentrations (MIC). As for the experimental part: as §1
For a further data set, the system named is S. aureus M 126. Briefly: Antimicrobial activities (MIC, agar dilution). It counts as cell-based. As to conditions: Staphylococcus aureus, M126; S. aureus M 126, Methicillin-hyperresistant strain; Sensitivity Disk agar-N+5% Horse blood; 10^6 CFU/ml; read-out: minimum inhibiting concentrations (MIC). As for the experimental part: as §1
The test system of a further data set is B. catarrhalis W-0500. The experiment in a line: Antimicrobial activities (MIC, agar dilution). It counts as cell-based. Conditions: Moraxella catarrhalis, W0500, Sensitivity Disk agar-N+5% Horse blood, 10^6 CFU/ml, read-out: minimum inhibiting concentrations (MIC). On the procedure: as §1
The subject of another data set is E. hirae ATCC 8043. The experiment in a line: Antimicrobial activities (MIC, agar dilution). It is filed as cell-based. As to conditions: Enterococcus hirae, ATCC8043, Sensitivity Disk agar-N+5% Horse blood, 10^6 CFU/ml, read-out: minimum inhibiting concentrations (MIC). As for the experimental part: as §1
A further data set deals with P. vulgaris GN 7919. Briefly: Antimicrobial activities (MIC, agar dilution). It is filed as cell-based. As to conditions: Proteus vulgaris, GN7919, Sensitivity Disk agar-N+5% Horse blood, 10^6 CFU/ml, read-out: minimum inhibiting concentrations (MIC). On the procedure:
as §1

In data set [1] the test system is S. epidermidis ATCC 14990. Briefly: Antimicrobial activities (MIC, agar dilution). It counts as cell-based. As to conditions: Staphylococcus epidermidis, ATCC14990, Sensitivity Disk agar-N+5% Horse blood, 10^6 CFU/ml, read-out: minimum inhibiting concentrations (MIC). On the procedure: as §1
In a further data set the test system is H. influenzae PRC 44. The experiment in a line: Antimicrobial activities (MIC, agar dilution). It is filed as cell-based. Conditions: Haemophilus influenzae, PRC44, Sensitivity Disk agar-N+5% Horse blood, 10^6 CFU/ml, read-out: minimum inhibiting concentrations (MIC). On the procedure: as §1
The next data set has as its system E. coli NIHJ JC-2. The experiment in a line: Antimicrobial activities (MIC, agar dilution). It counts as cell-based. As to conditions: Escherichia coli, NIHJJC2, Sensitivity Disk agar-N+5% Horse blood, 10^6 CFU/ml, read-out: minimum inhibiting concentrations (MIC). On the procedure:
as §1

A further data set deals with S. pneumoniae PRC 9. Briefly: Antimicrobial activities (MIC, agar dilution). It is filed as cell-based. As to conditions: Streptococcus pneumoniae, PRC9; S. pneumoniae PRC 9, Penicillin-hyperresistant strain; Sensitivity Disk agar-N+5% Horse blood; 10^6 CFU/ml; read-out: minimum inhibiting concentrations (MIC). As for the experimental part:
as §1

For the next data set, the system named is E. faecalis W-73. The experiment in a line: Antimicrobial activities (MIC, agar dilution). As to conditions: Enterococcus faecalis, W73, Sensitivity Disk agar-N+5% Horse blood, 10^6 CFU/ml, read-out: minimum inhibiting concentrations (MIC). It counts as cell-based. On the procedure: as §1
In a further data set the test system is mice (ICR, male). The experiment in a line: Acute toxicity test. It counts as in vivo. As to conditions: intravenous, 2000 mg/kg, three mice. On the procedure: The compound of Example 5 according to the present invention was intraveneously administered at a dose of 2000 mg/kg to mice (ICR, male) (one group consisting of three mice).

Converted amounts (≈) assume the structure as drawn. Where only a bound is given, the exact number is not on record here.

Regarding `C[C@@H](O)[C@H]1C(=O)N2C(C(=O)[O-])=C(c3cn4cncc4s3)[C@H](C)[C@H]12.[Na+]` [Compound B, Sodium (1S,5R,6S)-6-((1R)-1-hydroxyethyl)-2-(imidazo[5,1-b]thiazol-2-yl)-1-methyl-1-carbapen-2-em-3-carboxylate, reference compound], the MIC in the data set on H. influenzae PRC 2 is under 0.025 µg/mL; in the data set on S. aureus 209P JC-1, under 0.025 µg/mL; with K. pneumoniae PC 1602, 0.1 µg/mL; in the data set on C. freundii GN 346, 1.56 µg/mL; in the data set with S. aureus M 126, 6.25 µg/mL; in the data set with B. catarrhalis W-0500, 0.1 µg/mL. Besides, the MIC in the data set with E. hirae ATCC 8043 was 0.39 µg/mL; in the data set on P. vulgaris GN 7919, 0.1 µg/mL; in data set [1], under 0.025 µg/mL; in the data set with H. influenzae PRC 44, 0.2 µg/mL; with E. coli NIHJ JC-2, 0.2 µg/mL; in the data set with S. pneumoniae PRC 9 it was 0.2 µg/mL. Further, in the data set with E. faecalis W-73, the MIC turned out to be 0.39 µg/mL.

As for `C[C@@H](O)[C@H]1C(=O)N2C(C(=O)[O-])=C(c3cn4cnc(SCCNC(=N)N)c4s3)[C@H](C)[C@H]12.[Na+]` [Example 20, Sodium (1S,5R,6S)-2-[7-(2-guanidinoethyl)thioimidazo[5,1-b]thiazol-2-yl]-6-((1R)-1-hydroxyethyl)-1-methyl-1-carbapen-2-em-3-carboxylate], the MIC in the data set on H. influenzae PRC 2 was 0.05 µg/mL; in the data set with S. aureus 209P JC-1 it was under 0.025 µg/mL; in the data set on K. pneumoniae PC 1602, 0.39 µg/mL; in the data set on C. freundii GN 346, 1.56 µg/mL; with S. aureus M 126 it was 0.78 µg/mL; with B. catarrhalis W-0500 it was 0.05 µg/mL. Besides, the MIC was 0.2 µg/mL with E. hirae ATCC 8043; 0.39 µg/mL in the data set on P. vulgaris GN 7919; under 0.025 µg/mL in [1]; 0.1 µg/mL in the data set on H. influenzae PRC 44; 0.2 µg/mL with E. coli NIHJ JC-2; 0.05 µg/mL in the data set with S. pneumoniae PRC 9. For the same molecule, the MIC in the data set on E. faecalis W-73 came out at 0.2 µg/mL.

For `C[C@@H](O)[C@H]1C(=O)N2C(C(=O)[O-])=C(c3cn4cnc(SCCF)c4s3)[C@H](C)[C@H]12.[Na+]` [Example 14, Sodium (1S,5R,6S)-2-[7-(2-fluoroethyl)thioimidazo[5,1-b]thiazol-2-yl]-6-((1R)-1-hydroxyethyl)-1-methyl-1-carbapen-2-em-3-carboxylate], the MIC with H. influenzae PRC 2 is under 0.025 µg/mL; in the data set with S. aureus 209P JC-1, under 0.025 µg/mL; with K. pneumoniae PC 1602, 1.56 µg/mL; in the data set on S. aureus M 126, 0.78 µg/mL; in the data set on B. catarrhalis W-0500, 0.1 µg/mL; in the data set with E. hirae ATCC 8043, 0.2 µg/mL. The MIC in the data set on P. vulgaris GN 7919 was 0.78 µg/mL; in data set [1], under 0.025 µg/mL; with H. influenzae PRC 44 it was 0.025 µg/mL; in the data set with E. coli NIHJ JC-2, 1.56 µg/mL; with S. pneumoniae PRC 9, 0.05 µg/mL; in the data set with E. faecalis W-73 it was 0.2 µg/mL.

For `C[C@@H](O)[C@H]1C(=O)N2C(C(=O)O)=C(SCCN=CN)C[C@H]12` [Compound A, Imipenem, reference compound], the MIC with H. influenzae PRC 2 is 0.78 µg/mL (≈ 2.61 µM); in the data set with S. aureus 209P JC-1, under 0.025 µg/mL; in the data set with K. pneumoniae PC 1602, 0.2 µg/mL (≈ 0.668 µM); in the data set with C. freundii GN 346, 0.2 µg/mL (≈ 0.668 µM); in the data set with S. aureus M 126, 25 µg/mL (≈ 83.5 µM); in the data set with B. catarrhalis W-0500, 0.05 µg/mL (≈ 0.167 µM). Besides, the MIC with E. hirae ATCC 8043 is 0.78 µg/mL (≈ 2.61 µM); in the data set on P. vulgaris GN 7919 it was 0.1 µg/mL (≈ 0.334 µM); in data set [1], under 0.025 µg/mL; in the data set on H. influenzae PRC 44 it was 12.5 µg/mL (≈ 41.8 µM); in the data set with E. coli NIHJ JC-2, 0.1 µg/mL (≈ 0.334 µM); in the data set on S. pneumoniae PRC 9 it was 0.2 µg/mL (≈ 0.668 µM). Moreover, in the data set with E. faecalis W-73, the MIC amounted to 0.78 µg/mL (≈ 2.61 µM).

For the molecule `C[C@@H](O)[C@H]1C(=O)N2C(C(=O)[O-])=C(c3cn4cnc(SCCN)c4s3)[C@H](C)[C@H]12.[Na+]` [Example 5, Sodium (1S,5R,6S)-2-[7-(2-aminoethyl)thioimidazo[5,1-b]thiazol-2-yl]-6-((1R)-1-hydroxyethyl)-1-methyl-1-carbapen-2-em-3-carboxylate], the MIC with H. influenzae PRC 2 is 0.05 µg/mL; with S. aureus 209P JC-1, under 0.025 µg/mL; in the data set on K. pneumoniae PC 1602, 0.1 µg/mL; in the data set on C. freundii GN 346, 1.56 µg/mL; with S. aureus M 126, 1.56 µg/mL; in the data set with B. catarrhalis W-0500, 0.05 µg/mL. The MIC with E. hirae ATCC 8043 was 0.39 µg/mL; in the data set with P. vulgaris GN 7919 it was 0.2 µg/mL; in data set [1], under 0.025 µg/mL; in the data set with H. influenzae PRC 44, 0.2 µg/mL; in the data set with E. coli NIHJ JC-2 it was 0.1 µg/mL; in the data set with S. pneumoniae PRC 9, 0.05 µg/mL. For the same molecule, the MIC in the data set with E. faecalis W-73 turned out to be 0.2 µg/mL. Further, the “acute toxicity: survival” value in the data set on mice (ICR, male) was “all the mice survived”.
